Experimental data taken from patent US20100184683A1, “ANTIBACTERIAL AND ANTIFUNGAL PEPTIDES” (C3 JIAN, INC., priority 2009, published 2010).
In brackets after ≈: the same amount, converted by molar mass. Read-outs that look alike come from different tables or passages of the source. Blank lines part the entries; values can stand above or below the compound they belong to. Peptide text beside a SMILES is read from it.

Assays:
[1] = test system: S. epidermidis; assay type: cell-based
Procedure: (§1) In certain embodiments the MIC assays are performed as described herein in the Examples. For each organism, the media and growth conditions utilized is detailed in Table 8.
(§2) In certain embodiments the MIC assays are performed as follows: For each organism, the media and growth conditions utilized is detailed in Table 8.

[2] = test system: MRSA; assay type: cell-based, Methicillin-resistant Staphylococcus aureus
Procedure: as §1, §2

[3] = test system: Candida albicans; assay: Binding of targeting peptides to Candida albicans; conditions: tested at 3.13, 6.25, 12.5 and 25.0 μM in 1× PBS or HEPES/NaCl/MgCl2/0.1% CTAB
Procedure: The peptides in Table 6 were tested for binding efficiency at 3.13, 6.25, 12.5 and 25.0 μM concentrations in 1× phosphate-buffered saline or 20 mM HEPES (4-(2-hydroxyethyl)-1-piperazineethanesulfonic acid), 150 mM sodium chloride, 1 mM magnesium chloride and 0.1% CTAB.

[4] = test system: B. subtilis; assay type: cell-based, Bacillus subtilis
Procedure: as §1, §2

[5] = test system: A. niger; assay type: cell-based, Aspergillus niger
Procedure: as §1, §2

[6] = test system: S. pneumoniae; assay type: cell-based, Streptococcus pneumoniae
Procedure: as §1, §2

[7] = test system: T. rubrum; assay type: cell-based, Trichophyton rubrum
Procedure: as §1, §2

[8] = test system: C. albicans; assay type: cell-based, Candida albicans
Procedure: as §1, §2

[9] = A. niger, Potato Dextrose Agar, 25° C., aerobic, inoculum 10^5 CFU/ml, 18-24 h or 48 h

Compound: CC[C@H](C)[C@H](NC(=O)[C@H](CC(N)=O)NC(=O)[C@@H](NC(=O)[C@H](Cc1ccccc1)NC(=O)[C@H](CCC(=O)O)NC(=O)CNC(=O)[C@H](CCC(N)=O)NC(=O)[C@H](Cc1ccccc1)NC(=O)[C@@H](N)CCCCN)[C@@H](C)O)C(=O)NCC(=O)N[C@@H](CCC(N)=O)C(=O)N[C@@H](CO)C(=O)N[C@@H](Cc1ccc(O)cc1)C(=O)N[C@H](C(=O)N[C@H](C(=O)N[C@@H](CO)C(=O)N[C@@H](C)C(=O)N[C@@H](CO)C(=O)N[C@@H](Cc1c[nH]cn1)C(=O)N[C@@H](CCSC)C(=O)N[C@@H](CO)C(=O)N[C@H](C(=O)N[C@@H](CO)C(=O)N[C@@H](CC(C)C)C(=O)N[C@@H](CC(N)=O)C(=O)N[C@H](C(=O)NCC(=O)N[C@@H](CCCCN)C(=O)O)[C@@H](C)O)[C@@H](C)O)C(C)C)[C@@H](C)CC [PF-583] (H-KFQGEFTNIGQSYIVSASHMSTSLNTGK-OH; N-terminus and C-terminus assumed)
MIC [1]: 50 µM (≈ 152 µg/mL)
MIC [2]: 50 µM (≈ 152 µg/mL)
Target(s): form of Candida albicans bound [3]: hyphae

Compound: RESKLIAMADMIRRRI [PF-545]
MIC ([4]; B. subtilis, BHI, 30° C., aerobic, inoculum 10^5 CFU/ml, 18-24 h or 48 h): 25 µM
MIC ([2]; MRSA, BHI supplemented with 2% glucose, 37° C., aerobic, inoculum 10^5 CFU/ml, 18-24 h or 48 h): 50 µM
MIC [5, 9]: 50 µM

Compound: CC[C@H](C)[C@H](NC(=O)[C@H](CCC(N)=O)NC(=O)[C@H](CC(=O)O)NC(=O)[C@H](CO)NC(=O)[C@H](Cc1ccccc1)NC(=O)[C@@H](N)CCCCN)C(=O)N[C@@H](CC(=O)O)C(=O)N[C@@H](CCCCN)C(=O)NCC(=O)N[C@@H](CCC(N)=O)C(=O)N[C@@H](CC(=O)O)C(=O)N[C@@H](C)C(=O)N[C@@H](CC(C)C)C(=O)N[C@@H](CCCCN)C(=O)N[C@@H](CC(=O)O)C(=O)N[C@@H](CCCCN)C(=O)N[C@@H](CC(C)C)C(=O)NCC(=O)N[C@@H](CC(=O)O)C(=O)N[C@@H](CC(C)C)C(=O)O [PF-525] (H-KFSDQIDKGQDALKDKLGDL-OH; N-terminus and C-terminus assumed)
MIC [6]: 50 µM (≈ 112 µg/mL)
MIC [5]: 50 µM (≈ 112 µg/mL)

Compound: CSCC[C@H](NC(=O)[C@H](CCCNC(=N)N)NC(=O)[C@H](CCCNC(=N)N)NC(=O)[C@H](CC(C)C)NC(=O)[C@H](CCCNC(=N)N)NC(=O)[C@H](CCC(=O)O)NC(=O)[C@@H](NC(=O)[C@H](CS)NC(=O)CNC(=O)[C@H](CCCNC(=N)N)NC(=O)[C@@H](N)CCCNC(=N)N)[C@@H](C)O)C(=O)N[C@@H](C)C(=O)N[C@@H](CCCNC(=N)N)C(=O)N[C@@H](CCCNC(=N)N)C(=O)N[C@@H](CC(N)=O)C(=O)N[C@@H](C)C(=O)N[C@@H](Cc1c[nH]c2ccccc12)C(=O)N[C@@H](CC(=O)O)C(=O)N[C@@H](CC(C)C)C(=O)N[C@@H](Cc1ccc(O)cc1)C(=O)N[C@@H](C)C(=O)N[C@@H](CCC(=O)O)C(=O)N[C@@H](Cc1c[nH]cn1)C(=O)N[C@@H](Cc1ccccc1)C(=O)N[C@@H](Cc1ccc(O)cc1)C(=O)O [PF-148] (H-RRGCTERLRRMARRNAWDLYAEHFY-OH; N-terminus and C-terminus assumed)
MIC [4]: 50 µM (≈ 161 µg/mL)
MIC [5]: 50 µM (≈ 161 µg/mL)

Compound: CC[C@H](C)[C@H](NC(=O)[C@H](C)NC(=O)[C@@H]1CCCN1C(=O)[C@H](Cc1ccccc1)NC(=O)[C@@H]1CCCN1C(=O)[C@H](CC(C)C)NC(=O)[C@@H](N)C(C)C)C(=O)N1CCC[C@H]1C(=O)N[C@@H](CC(C)C)C(=O)N[C@@H](CO)C(=O)N[C@@H](CCCNC(=N)N)C(=O)N[C@@H](CCCNC(=N)N)C(=O)N[C@@H](CCCNC(=N)N)C(=O)N[C@@H](C)C(=O)N[C@@H](CS)C(=O)N[C@H](C(=O)N[C@@H](C)C(=O)N[C@@H](C)C(=O)N1CCC[C@H]1C(=O)N[C@@H](CCCNC(=N)N)C(=O)N1CCC[C@H]1C(=O)N[C@@H](CCCNC(=N)N)C(=O)N[C@@H](CO)C(=O)N[C@@H](CCCNC(=N)N)C(=O)N[C@@H](CCC(N)=O)C(=O)N[C@@H](CCCNC(=N)N)C(=O)N[C@@H](C)C(=O)N[C@@H](CO)C(=O)O)C(C)C [PF-168] (H-VLPFPAIPLSRRRACVAAPRPRSRQRAS-OH; N-terminus and C-terminus assumed)
MIC [7]: 50 µM (≈ 156 µg/mL)
MIC [2]: 50 µM (≈ 156 µg/mL)
MIC [5]: 50 µM (≈ 156 µg/mL)
Target(s): form of Candida albicans bound [3]: yeast cells

Compound: CC[C@H](C)[C@H](NC(=O)[C@H](CO)NC(=O)[C@H](CC(N)=O)NC(=O)[C@H](CCCNC(=N)N)NC(=O)[C@H](CC(N)=O)NC(=O)[C@H](CC(C)C)NC(=O)[C@H](CCCCN)NC(=O)[C@H](CCCCN)NC(=O)[C@H](CCCCN)NC(=O)[C@@H](NC(=O)[C@@H]1CCCN1C(=O)[C@H](CO)NC(=O)[C@H](CCCNC(=N)N)NC(=O)[C@@H](NC(=O)[C@H](CCCNC(=N)N)NC(=O)[C@@H](NC(=O)[C@@H](N)CCSC)[C@@H](C)CC)[C@@H](C)CC)[C@@H](C)O)C(=O)N[C@@H](CO)C(=O)N[C@@H](CC(=O)O)C(=O)N[C@@H](Cc1c[nH]c2ccccc12)C(=O)N[C@@H](CCCCN)C(=O)N[C@@H](CO)C(=O)N[C@@H](CC(N)=O)C(=O)N[C@H](C(=O)N[C@@H](CO)C(=O)NCC(=O)N[C@@H](CCCNC(=N)N)C(=O)N[C@@H](Cc1ccccc1)C(=O)N[C@@H](Cc1ccccc1)C(=O)N[C@@H](Cc1ccc(O)cc1)C(=O)O)[C@@H](C)O [PF-283] (H-MIRIRSPTKKKLNRNSISDWKSNTSGRFFY-OH; N-terminus and C-terminus assumed)
MIC [1]: 50 µM (≈ 182 µg/mL)
MIC [4]: 50 µM (≈ 182 µg/mL)
MIC [7]: 50 µM (≈ 182 µg/mL)

Compound: LSEMERRRLRKRA [PF-529]
MIC ([6]; S. pneumoniae, TSB supplemented with 5% yeast extract, 37° C., 10% CO2, inoculum 10^6 CFU/ml, 18-24 h or 48 h): 50 µM
MIC [5, 9]: 50 µM

Compound: CC[C@H](C)[C@H](NC(=O)[C@H](CCCNC(=N)N)NC(=O)[C@H](C)NC(=O)[C@@H]1CCCN1C(=O)[C@H](Cc1c[nH]c2ccccc12)NC(=O)[C@H](CC(C)C)NC(=O)[C@H](CCCNC(=N)N)NC(=O)[C@H](CCCCN)NC(=O)[C@@H](N)Cc1c[nH]c2ccccc12)C(=O)N[C@@H](CC(C)C)C(=O)N[C@@H](C)C(=O)NCC(=O)N[C@@H](Cc1c[nH]cn1)C(=O)N[C@@H](CO)C(=O)N[C@@H](CCCNC(=N)N)C(=O)N[C@@H](CCCNC(=N)N)C(=O)N[C@@H](CCCNC(=N)N)C(=O)N[C@@H](CCSC)C(=O)N[C@@H](CCCNC(=N)N)C(=O)N[C@@H](Cc1c[nH]c2ccccc12)C(=O)N[C@@H](CCSC)C(=O)N[C@H](C(=O)N[C@H](C(=O)N[C@@H](Cc1c[nH]c2ccccc12)C(=O)N[C@@H](CCCNC(=N)N)C(=O)N[C@@H](Cc1ccc(O)cc1)C(=O)N[C@@H](Cc1ccccc1)C(=O)N[C@@H](C)C(=O)N[C@@H](C)C(=O)N[C@H](C(=O)O)[C@@H](C)O)C(C)C)C(C)C [PF-C021] (H-WKRLWPARILAGHSRRRMRWMVVWRYFAAT-OH; N-terminus and C-terminus assumed)
MIC [8]: 50 µM (≈ 193 µg/mL)
MIC [7]: 50 µM (≈ 193 µg/mL)

Further lines, results first:

MIC [8]: 50 µM (≈ 73.9 µg/mL)
Compound: CC(C)[C@H](NC(=O)[C@@H](N)Cc1ccc(O)cc1)C(=O)N[C@@H](CC(N)=O)C(=O)N[C@@H](Cc1ccc(O)cc1)C(=O)N[C@@H](CC(N)=O)C(=O)N[C@@H](CCC(N)=O)C(=O)N[C@@H](CO)C(=O)N[C@@H](Cc1ccccc1)C(=O)N[C@@H](CC(N)=O)C(=O)N[C@@H](CO)C(=O)NCC(=O)N[C@@H](Cc1c[nH]c2ccccc12)C(=O)O [PF-C220] (H-YVNYNQSFNSGW-OH; N-terminus and C-terminus assumed)

MIC [6]: 50 µM (≈ 85.9 µg/mL)
MIC [5]: 25 µM (≈ 43 µg/mL)
Compound: CC(C)C[C@H](NC(=O)[C@H](CCC(N)=O)NC(=O)[C@H](CO)NC(=O)[C@H](CCC(N)=O)NC(=O)[C@H](CC(C)C)NC(=O)[C@@H](N)CO)C(=O)NCC(=O)N1CCC[C@H]1C(=O)N[C@@H](CS)C(=O)N[C@@H](CC(C)C)C(=O)N[C@@H](Cc1c[nH]cn1)C(=O)N[C@@H](CC(=O)O)C(=O)N[C@@H](CCC(N)=O)C(=O)N[C@@H](CCCNC(=N)N)C(=O)N[C@@H](Cc1c[nH]cn1)C(=O)O [PF-448] (H-SLQSQLGPCLHDQRH-OH; N-terminus and C-terminus assumed)

MIC [2]: 50 µM (≈ 44.5 µg/mL)
Compound: CC(C)[C@H](NC(=O)[C@H](C)NC(=O)[C@H](Cc1ccc(O)cc1)NC(=O)[C@@H](N)CC(N)=O)C(=O)N[C@H](C(=O)N[C@@H](CO)C(=O)N[C@@H](Cc1c[nH]cn1)C(=O)N[C@H](C(=O)O)[C@@H](C)O)C(C)C [PF-209] (H-NYAVVSHT-OH; N-terminus and C-terminus assumed)

MIC [8]: 50 µM (≈ 99.6 µg/mL)
Compound: CC[C@H](C)[C@H](N)C(=O)N[C@@H](CC(C)C)C(=O)N[C@H](C(=O)N[C@@H](CC(C)C)C(=O)N[C@@H](CC(C)C)C(=O)N[C@@H](C)C(=O)N[C@@H](CC(C)C)C(=O)N[C@@H](CCC(N)=O)C(=O)N[C@H](C(=O)N[C@@H](CCC(=O)O)C(=O)N[C@@H](CC(C)C)C(=O)N[C@@H](CC(=O)O)C(=O)N[C@@H](CO)C(=O)N[C@@H](CCCCN)C(=O)N[C@@H](Cc1ccccc1)C(=O)N[C@@H](CCC(N)=O)C(=O)N[C@@H](Cc1ccc(O)cc1)C(=O)O)C(C)C)C(C)C [PF-C157] (H-ILVLLALQVELDSKFQY-OH; N-terminus and C-terminus assumed)
